Assay results taken from paper PMC10761660, “Preclinical evaluation of an ^18F-labeled N^ε-acryloyllysine piperazide for covalent targeting of transglutaminase 2” (EJNMMI Radiopharmacy and Chemistry, 2024).

Legend:
Liver microsome assay = format: in vitro ADME, murine; conditions: 40 µM, after 60 min
Experimental: Microsome experiments with [^18F]7b in the presence of NADPH were performed according to the procedure recently described by us with slight modifications (Lemm et al. [2022]). […] [^18F]7b dissolved in 0.5% ethanol/PBS (100 µL; 0.2% ethanol final, e.g. 108 MBq/mL or 4.1 µM final) was mixed with PBS (112.5 µL) and murine liver microsomes (MLM, 12.5 µL of 20 mg/mL stock; 1 mg/mL final; Gibco™ Cat. No. MSMCPL, Lot. No. MS053-A) in a 1.5 mL Eppendorf tube and the mixture was warmed for 5 min at 37 °C. Subsequently, NADPH (25 µL of freshly prepared 20 mM solution in PBS, 2 mM final) was added and the mixture was incubated at 37 °C. As a control incubation, the NADPH solution was replaced by PBS. At distinct time points (5, 10, 15, 30, and 60 min), an aliquot (40 µL) was withdrawn and added to ice-cold CH3CN (160 µL). The mixture was vortexed for 30 s, stored on ice for 4 min and centrifuged (5 min at 16,100 × g). The resulting supernatant was used for radio-HPLC and radio-TLC analyses. For radio-HPLC, the Shimadzu Nexera X2 UHPLC system described above including the conditions for analysis was used. Radio-TLC was carried out on reversed-phase TLC plates (ALUGRAM RP-18W/UV254 from Macherey–Nagel, Düren, Germany) with a mobile phase of 40% CH3CN in water containing 0.1% trifluoroacetic acid. Visualization of radioactive spots and subsequent analysis was conducted as described above.
Testosterone (40 µM final) was used as positive control for the activity of the MLM and was separately treated and analyzed after incubation times of 5, 10, 15, 30, and 60 min as described above (0% ethanol final; HPLC gradient profile: 45% eluent B for 10 min followed by washing of the column with 45% to 95% eluent B in 1 min, 95% eluent B for 5 min, 95% to 45% eluent B in 1 min, 45% eluent B for 8 min; total time of 25 min).
For that, solutions of [^18F]7b in 0.5% ethanol/PBS (10 µL; 0.1% ethanol final, 17 MBq/mL or 1.14 µM final) were mixed with the respective tenfold concentrated solutions of 7b dissolved in 10% DMSO/PBS (5 µL, 1% DMSO final and 5/10/20/40/80 µM of 7b final), PBS (27.5 µL) and murine liver microsomes (2.5 µL of 20 mg/mL stock) in a 1.5 mL Eppendorf tube and the mixture was warmed for 5 min at 37 °C. Subsequently, NADPH (5 µL of freshly prepared 20 mM solution in PBS, 2 mM final) was added and the mixture was incubated at 37 °C. At distinct time points (5, 10, 15, 20, and 30 min), an aliquot (5 µL) was withdrawn and added to ice-cold CH3CN (40 µL). The subsequent steps were performed as described above including analysis by radio-TLC.
For the t1/2 approach at n.c.a. level, the obtained fractions of intact [^18F]7b (by radio-HPLC or radio-TLC analysis) were plotted against the time. Nonlinear regression was performed by one-phase decay (equation 1) as implemented in GraphPad Prism (GraphPad Prism 9.5.1.733), which provided the t1/2 values. The fraction at X = 0 min, Y0, was constrained to 1.0.1 Y0=Y0-Plateau×e^-k×X+Plateau
Subsequently, the intrinsic clearance, CLint (mL*min^−1*kg^−1), was calculated using equation 2 (Obach et al. [1997]; Schneider et al. [2019])2 CLint=ln2/t1/2min×fuinc×1/MLM(mg/mL)×microsomalprotein/liverweightmg/g×liverweight/bodyweightg/kg with the scaling factors of 60.1 mg/g (microsomal protein/liver weight for rats as no value for mice could be found) (Carlile et al. [1997]) and 87.5 g/kg (liver weight/body weight for mice) (Davies and Morris [1993]). The concentration of the MLMs was 1 mg/mL.
For the Vmax/Km approach, the obtained fractions of intact [^18F]7b (by radio-TLC analysis) were plotted against the time (fraction plot). The concentration plot was obtained by transformation of the fractions into concentrations of 7b by taking the experimentally determined molar activity of [^18F]7b into account (i.e. final concentration of 1.14, 6.16, 11.14, 21.14, 41.14, and 81.14 µM for 7b in the performed experiments). Both plots were analyzed by nonlinear regression according to one-phase decay (equation 1). […]

[1] = parameters: method as in Schuppan et al. [2021]; conditions: patients with celiac disease; ref Schuppan et al. [2021]; cited from earlier work

## C[C@]12CC[C@H]3[C@@H](CCC4=CC(=O)CC[C@@]43C)[C@@H]1CC[C@@H]2O [Testosterone, reference compound]
Liver microsome assay
  consumption of positive control by MLM: completely consumed

## CCC(CC)CNC(=O)Cn1cccc(NC(=O)[C@H](CC/C=C/C(=O)OC)NC(=O)c2cncn2C)c1=O [ZED1227]
[1]
  effect on duodenal mucosa: attenuated damage of the duodenal mucosa
  tolerability: well-tolerated
